In the CheMixHub viscosity set:

Experiment: xn = mol fraction of the nth substance listed

CCOC(C)=O + CCCCCCO
viscosity [mPa·s], 101.33 kPa
Conditions | x1 = 0.1142 | x1 = 0.2247 | x1 = 0.332 | x1 = 0.436 | x1 = 0.537 | x1 = 0.635 | x1 = 0.7301 | x1 = 0.8227 | x1 = 0.9125
298.15 K | 2.832 | 2.006 | 1.472 | 1.128 | 0.9 | 0.736 | 0.618 | 0.539 | 0.47
303.15 K | 2.481 | 1.775 | 1.334 | 1.027 | 0.824 | 0.692 | 0.574 | 0.506 | 0.448
308.15 K | 2.181 | 1.582 | 1.2 | 0.942 | 0.76 | 0.591 | 0.541 | 0.475 | 0.419

CCOc1ccccc1 + CCCCCCO
viscosity [mPa·s], 101.3 kPa
Conditions | x1 = 0.1009 | x1 = 0.1998 | x1 = 0.2997 | x1 = 0.3996 | x1 = 0.5031 | x1 = 0.6005 | x1 = 0.7003 | x1 = 0.8012 | x1 = 0.9001
293.15 K | 4.148 | 3.239 | 2.559 | 2.075 | 1.745 | 1.557 | 1.458 | 1.407 | 1.38
298.15 K | 3.444 | 2.764 | 2.253 | 1.872 | 1.586 | 1.392 | 1.293 | 1.246 | 1.237
308.15 K | 2.831 | 2.252 | 1.807 | 1.482 | 1.248 | 1.103 | 1.033 | 1.001 | 0.9927
318.15 K | 2.142 | 1.72 | 1.388 | 1.153 | 0.9975 | 0.9133 | 0.8619 | 0.8367 | 0.8214

COC(=O)CC(C)=O + CCCCCCO
viscosity [mPa·s], 101.33 kPa
Conditions | x1 = 0.1036 | x1 = 0.204 | x1 = 0.3064 | x1 = 0.4075 | x1 = 0.5096 | x1 = 0.6081 | x1 = 0.7063 | x1 = 0.806 | x1 = 0.9023
298.15 K | 3.185 | 2.588 | 2.204 | 1.947 | 1.749 | 1.609 | 1.521 | 1.473 | 1.478
303.15 K | 2.76 | 2.257 | 1.932 | 1.72 | 1.547 | 1.442 | 1.364 | 1.33 | 1.34
308.15 K | 2.409 | 1.989 | 1.711 | 1.527 | 1.387 | 1.302 | 1.238 | 1.211 | 1.222

CCOC(C)=O + CCCCCO
viscosity [mPa·s], 101.33 kPa
Conditions | x1 = 0.1 | x1 = 0.2 | x1 = 0.3 | x1 = 0.4001 | x1 = 0.5001 | x1 = 0.6036 | x1 = 0.7001 | x1 = 0.8001 | x1 = 0.9
298.15 K | 2.349 | 1.693 | 1.282 | 1.011 | 0.829 | – | 0.6 | 0.521 | 0.472
303.15 K | 2.079 | 1.53 | 1.161 | 0.924 | 0.766 | 0.644 | 0.561 | 0.486 | 0.446
308.15 K | 1.843 | 1.367 | 1.053 | 0.848 | 0.681 | 0.599 | 0.525 | 0.459 | 0.392

CCOc1ccccc1 + CCCCCO
viscosity [mPa·s], 101.3 kPa
Conditions | x1 = 0.0998 | x1 = 0.1989 | x1 = 0.3012 | x1 = 0.3999 | x1 = 0.5004 | x1 = 0.6001 | x1 = 0.7013 | x1 = 0.7997 | x1 = 0.9021
293.15 K | 3.281 | 2.682 | 2.196 | 1.866 | 1.631 | 1.494 | 1.42 | 1.379 | 1.371
298.15 K | 2.882 | 2.372 | 1.953 | 1.646 | 1.423 | 1.299 | 1.245 | 1.232 | 1.228
308.15 K | 2.152 | 1.785 | 1.486 | 1.256 | 1.121 | 1.032 | 0.9978 | 0.9914 | 0.9892
318.15 K | 1.691 | 1.381 | 1.155 | 1.01 | 0.9175 | 0.8405 | 0.8318 | 0.8317 | 0.8269

COC(=O)CC(C)=O + CCCCCO
viscosity [mPa·s], 101.33 kPa
Conditions | x1 = 0.1031 | x1 = 0.2056 | x1 = 0.3072 | x1 = 0.4083 | x1 = 0.5091 | x1 = 0.6099 | x1 = 0.7075 | x1 = 0.8063 | x1 = 0.9019
298.15 K | 2.467 | 2.053 | 1.796 | 1.637 | 1.52 | 1.439 | 1.408 | 1.408 | 1.449
303.15 K | 2.156 | 1.809 | 1.588 | 1.453 | 1.356 | 1.294 | 1.268 | 1.275 | 1.313
308.15 K | 1.903 | 1.606 | 1.419 | 1.3 | 1.223 | 1.175 | 1.156 | 1.164 | 1.201

CCOC(C)=O + CCCCO
298.15 K
Conditions | viscosity [mPa·s]
101 kPa, x2 = 0.12 | 0.48
101 kPa, x2 = 0.23 | 0.51
101 kPa, x2 = 0.34 | 0.578
101 kPa, x2 = 0.44 | 0.648
101 kPa, x2 = 0.54 | 0.79
101 kPa, x2 = 0.64 | 0.987
101 kPa, x2 = 0.73 | 1.165
101 kPa, x2 = 0.83 | 1.425
101 kPa, x2 = 0.91 | 1.815
101.33 kPa, x2 = 0.1338 | 0.468
101.33 kPa, x2 = 0.2522 | 0.517
101.33 kPa, x2 = 0.3724 | 0.599
101.33 kPa, x2 = 0.4809 | 0.691
101.33 kPa, x2 = 0.5952 | 0.838
101.33 kPa, x2 = 0.7033 | 1.041
101.33 kPa, x2 = 0.801 | 1.331
101.33 kPa, x2 = 0.8918 | 1.741

COC(=O)CC(C)=O + CCCCO
viscosity [mPa·s], 101.33 kPa
Conditions | x1 = 0.1022 | x1 = 0.2039 | x1 = 0.306 | x1 = 0.4081 | x1 = 0.511 | x1 = 0.6074 | x1 = 0.7044 | x1 = 0.8051 | x1 = 0.9038
298.15 K | 1.886 | 1.628 | 1.465 | 1.378 | 1.328 | 1.311 | 1.321 | 1.368 | 1.436
303.15 K | 1.669 | 1.447 | 1.308 | 1.235 | 1.197 | 1.183 | 1.197 | 1.211 | 1.302
308.15 K | 1.487 | 1.301 | 1.195 | 1.118 | 1.09 | 1.08 | 1.093 | 1.131 | 1.19
